The inhibition is how much of the control response was suppressed. One may read the IC50 as the concentration needed to halve the response being measured.

The subject of one assay is IGROV1. The assay can be described thus: NCI single dose screen, IGROV1. It is filed as cell-based. As to conditions: Homo sapiens, IGROV-1; IGROV1, ovarian cancer; single dose 10^−5 M; read-out: growth inhibition percentage. On the procedure: (§1) Screening of the anticancer activity of the newly synthesised compounds (6a, 6c, 6d, 6e, 6j, 6l, 6m, 6n, 6o, and 6p) was performed by the US National Cancer Institute (NCI) using 60 different human tumour cell lines in accordance with standard procedures formerly reported.
(§2) In vitro anticancer screening was carried out for the selected compounds at a single dose (10^−5 M) against 60 different human tumour cell lines of nine different cancer cell types: leukaemia, lung, colon, CNS, melanoma, ovarian, renal, prostate, and breast cancers.

In another assay the test system is UACC-62. Nature of the assay: NCI single dose screen, UACC-62. It counts as cell-based. Particulars: Homo sapiens; UACC-62, melanoma; single dose 10^−5 M; read-out: growth inhibition percentage. The protocol:
as §1, §2

A further assay has as its system HCC-2998. Nature of the assay: NCI single dose screen, HCC-2998. As to conditions: Homo sapiens; HCC-2998, colon cancer; single dose 10^−5 M; read-out: growth inhibition percentage. It is filed as cell-based. On the procedure:
as §1, §2

The test system of a further assay is HCT-15. The assay can be described thus: NCI single dose screen, HCT-15. It is filed as cell-based. Particulars: Homo sapiens; HCT-15, colon cancer; single dose 10^−5 M; read-out: growth inhibition percentage. On the procedure: as §1, §2
In a further assay the test system is 786-0. Nature of the assay: NCI single dose screen, 786-0. It is filed as cell-based. Particulars: Homo sapiens; 786-0, renal cancer; single dose 10^−5 M; read-out: growth inhibition percentage. The protocol: as §1, §2
In a further assay the test system is TK-10. The assay can be described thus: NCI single dose screen, TK-10. It counts as cell-based. As to conditions: Homo sapiens; TK-10, renal cancer; single dose 10^−5 M; read-out: growth inhibition percentage. The protocol:
as §1, §2

For a further assay, the system named is OVCAR-5. Nature of the assay: NCI single dose screen, OVCAR-5. As to conditions: Homo sapiens; OVCAR-5, ovarian cancer; single dose 10^−5 M; read-out: growth inhibition percentage. It is filed as cell-based. The protocol:
as §1, §2

A further assay has as its system MOLT-4. Nature of the assay: NCI single dose screen, MOLT-4. As to conditions: Homo sapiens; MOLT-4, leukaemia; single dose 10^−5 M; read-out: growth inhibition percentage. It is filed as cell-based. On the procedure:
as §1, §2

For a further assay, the system named is A498. Nature of the assay: NCI single dose screen, A498. It counts as cell-based. Particulars: Homo sapiens; A498, renal cancer; single dose 10^−5 M; read-out: growth inhibition percentage. On the procedure: as §1, §2
For the next assay, the system named is RXF 393. Nature of the assay: NCI single dose screen, RXF 393. It is filed as cell-based. Particulars: Homo sapiens; RXF 393, renal cancer; single dose 10^−5 M; read-out: growth inhibition percentage. The protocol:
as §1, §2

In another assay the test system is HL-60(TB). The assay can be described thus: NCI single dose screen, HL-60(TB). It counts as cell-based. As to conditions: Homo sapiens, leukaemia, single dose 10^−5 M, read-out: growth inhibition percentage. The protocol: as §1, §2
The test system of the next assay is NCI-H322M. Nature of the assay: NCI single dose screen, NCI-H322M. It counts as cell-based. As to conditions: Homo sapiens, non-small cell lung cancer, single dose 10^−5 M, read-out: growth inhibition percentage. On the procedure: as §1, §2
A further assay concerns T-47D. The assay can be described thus: NCI single dose screen, T-47D. It counts as cell-based. Particulars: Homo sapiens, T47D, breast cancer, single dose 10^−5 M, read-out: growth inhibition percentage. On the procedure: as §1, §2
The test system of the next assay is SK-MEL-2. Nature of the assay: NCI single dose screen, SK-MEL-2. It is filed as cell-based. Particulars: Homo sapiens; SK-MEL-2, melanoma; single dose 10^−5 M; read-out: growth inhibition percentage. The protocol:
as §1, §2

For assay [1], the system named is LPS-induced ROS production in RAW 264.7 cells. The assay can be described thus: ROS production in LPS-activated RAW 264.7 macrophage cells (DCFH-DA). As to conditions: LPS-activated RAW 264.7 cells, mean ± SEM, three replicates; for IC50: Mus musculus, RAW264.7. It is filed as cell-based. The protocol: TNF-α and IL-6 production were detected in RAW 264.7 macrophage cell culture supernatants following the induction of inflammation by LPS. Moreover, the probes of oxidative species 2,7-dichlorofluorescein diacetate (DCFH-DA) (Molecular Probes) and NO, 4-amino-5-methylamino-2,7-difluorofluorescein diacetate (DAF-FM diacetate) (Molecular Probes) were used to investigate the antioxidant and NO production inhibitory potential of the test compounds. Briefly, RAW 264.7 cells were cultured in black 96 well plates (200 000 cells/mL, 100 µl/well) for 24 h followed by the incubation with the individual test compounds or the reference drugs at different concentrations (12.5, 25, 50, and 100 µM) for 2 h at 37 °C. LPS was then added at a final concentration of 1 µg/mL for an additional 18 h. The cell culture supernatant was collected from cells treated with the different compounds at 25 µM to measure TNF-α and IL-6 levels (1:10 dilution) using DuoSet ELISA kits (R&D Systems, Minneapolis, MN) following the manufacturer’s instructions. Then, the plates were washed to perform ROS and NO detection assays as detailed in our previous studies[16]^,[27].

The subject of a further assay is HT29. The assay can be described thus: NCI single dose screen, HT29. It counts as cell-based. As to conditions: Homo sapiens, HT-29; HT29, colon cancer; single dose 10^−5 M; read-out: growth inhibition percentage. On the procedure: as §1, §2
A further assay concerns EKVX. The assay can be described thus: NCI single dose screen, EKVX. It is filed as cell-based. Particulars: Homo sapiens, non-small cell lung cancer, single dose 10^−5 M, read-out: growth inhibition percentage. On the procedure:
as §1, §2

A further assay has as its system NCI-H226. The assay can be described thus: NCI single dose screen, NCI-H226. It counts as cell-based. Particulars: Homo sapiens; NCI-H226, non-small cell lung cancer; single dose 10^−5 M; read-out: growth inhibition percentage. The protocol: as §1, §2
A further assay concerns HOP-62. The assay can be described thus: NCI single dose screen, HOP-62. It is filed as cell-based. Particulars: Homo sapiens; HOP-62, non-small cell lung cancer; single dose 10^−5 M; read-out: growth inhibition percentage. On the procedure: as §1, §2
The target of a further assay is T1, human recombinant COX-2 (Homo sapiens, UniProt P35354).
T1 sequence (P35354 18-604): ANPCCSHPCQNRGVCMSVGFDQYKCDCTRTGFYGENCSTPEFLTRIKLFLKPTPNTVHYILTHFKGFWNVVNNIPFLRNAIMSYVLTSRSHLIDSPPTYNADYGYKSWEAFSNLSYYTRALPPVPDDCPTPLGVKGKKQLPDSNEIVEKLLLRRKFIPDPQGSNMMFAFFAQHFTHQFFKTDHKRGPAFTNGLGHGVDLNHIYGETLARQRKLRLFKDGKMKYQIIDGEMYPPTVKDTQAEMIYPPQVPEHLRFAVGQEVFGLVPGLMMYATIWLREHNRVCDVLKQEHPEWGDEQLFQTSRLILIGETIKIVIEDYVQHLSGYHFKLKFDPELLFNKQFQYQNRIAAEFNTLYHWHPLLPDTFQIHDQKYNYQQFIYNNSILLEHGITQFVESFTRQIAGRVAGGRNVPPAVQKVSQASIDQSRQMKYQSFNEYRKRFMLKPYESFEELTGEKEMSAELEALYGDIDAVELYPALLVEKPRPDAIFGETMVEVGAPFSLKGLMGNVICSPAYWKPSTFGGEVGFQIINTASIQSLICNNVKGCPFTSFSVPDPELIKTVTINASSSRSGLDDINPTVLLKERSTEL
The assay can be described thus: In vitro COX-2 inhibition assay kit (Cayman). It is filed as biochemical. Particulars: for COX-2 SI: Selectivity index = COX-1 IC50/COX-2 IC50; for IC50: human recombinant COX-2, mean ± SEM, n = 3 replicates.

Method for human recombinant COX-2: The half-maximal inhibitory concentration (IC50, μM) was determined, and the COX-2 selectivity index (SI) was calculated as IC50 (COX-1)/IC50 (COX-2).

In the case of `CN1CN(NC(=O)Nc2ccccc2)C(=O)c2ccccc21` [Compound 6a, 1-(1-Methyl-4-oxo-1,4-dihydroquinazolin-3(2H)-yl)-3-phenylurea], the inhibition at 10 µM in the assay with IGROV1, with UACC-62, in the assay with HCC-2998, in the assay with HCT-15, in the assay with 786-0 and in the assay with TK-10 was below 10% each time. In addition, the inhibition at 10 µM with OVCAR-5, with MOLT-4, in the assay on A498, with RXF 393, in the assay on HL-60(TB) and in the assay with NCI-H322M was below 10% each time. The inhibition at 10 µM in the assay with T-47D, in the assay with SK-MEL-2, in the assay on HT29, in the assay with EKVX, with NCI-H226 and in the assay with HOP-62 was below 10% each time. Further, the IC50 is 35.7 ± 1.08 µM in assay [1] and 68.3 ± 1.89 µM on human recombinant COX-2. The “COX-2 SI” value at human recombinant COX-2 stood at 0.18.

For the compound `CN1c2ccccc2C(=O)N(NC(=O)Nc2ccccc2)C1c1ccccc1` (stereo not shown) [Compound 6c, 1-(1-Methyl-4-oxo-2-phenyl-1,4-dihydroquinazolin-3(2H)-yl)-3-phenylurea], the inhibition at 10 µM in the assay on IGROV1 is below 10%; with UACC-62, below 10%; in the assay with HCC-2998 it was below 10%; in the assay with HCT-15 it was below 10%; in the assay with 786-0, 35.3%; in the assay on TK-10 it was below 10%. For the same compound, the inhibition at 10 µM in the assay on OVCAR-5, with MOLT-4, in the assay with A498, in the assay with RXF 393, with HL-60(TB) and in the assay on NCI-H322M was below 10% throughout. The inhibition at 10 µM in the assay with T-47D, in the assay on SK-MEL-2, in the assay with HT29, in the assay with EKVX, in the assay on NCI-H226 and with HOP-62 was below 10% each time. The IC50 in [1] was found to be 48.1 ± 1.07 µM; on human recombinant COX-2 it was 3.41 ± 1.83 µM. Further, the “COX-2 SI” value on human recombinant COX-2 is 0.29.

For the compound `CN1c2ccccc2C(=O)N(NC(=O)Nc2ccccc2)C1c1ccc(F)cc1` (stereo not shown) [Compound 6d, 1-(2-(4-Fluorophenyl)-1-methyl-4-oxo-1,4-dihydroquinazolin-3(2H)-yl)-3-phenylurea], the inhibition at 10 µM was below 10% with IGROV1; 15.1% with UACC-62; below 10% with HCC-2998; below 10% in the assay on HCT-15; 11.9% with 786-0; below 10% in the assay on TK-10. The inhibition at 10 µM is below 10% in the assay on OVCAR-5; 11.1% in the assay with MOLT-4; below 10% with A498; below 10% in the assay on RXF 393; below 10% in the assay with HL-60(TB); below 10% in the assay on NCI-H322M. The inhibition at 10 µM in the assay with T-47D, with SK-MEL-2, in the assay with HT29, in the assay on EKVX, with NCI-H226 and in the assay with HOP-62 was below 10% each time. Also, the values for the IC50 (in assay [1]; at human recombinant COX-2) were 37 ± 1 µM and 2.07 ± 1.39 µM, respectively. Besides, the “COX-2 SI” value on human recombinant COX-2 is 2.20.

`CN1c2ccccc2C(=O)N(NC(=O)Nc2ccccc2)C1c1ccc([N+](=O)[O-])cc1` (stereo not shown) [Compound 6e, 1-(1-Methyl-2-(4-nitrophenyl)-4-oxo-1,4-dihydroquinazolin-3(2H)-yl)-3-phenylurea]: the inhibition at 10 µM in the assay on IGROV1 is below 10%; with UACC-62 it was below 10%; with HCC-2998, below 10%; in the assay with HCT-15, below 10%; with 786-0, 39.9%; in the assay on TK-10, below 10%. For the same compound, the inhibition at 10 µM with OVCAR-5, in the assay with MOLT-4, in the assay on A498, with RXF 393, with HL-60(TB) and with NCI-H322M was below 10% in each case. For the same compound, the inhibition at 10 µM in the assay on T-47D, in the assay on SK-MEL-2, in the assay on HT29, in the assay on EKVX, in the assay with NCI-H226 and with HOP-62 was below 10% each time. The “ROS IC50” value in assay [1] is recorded as “neither compound 6e nor compound 6g inhibited ROS production significantly”. Also, the IC50 in assay [1] was above 100 µM; on human recombinant COX-2, 0.83 ± 1.37 µM. In addition, at human recombinant COX-2, the “COX-2 SI” value is reported as 11.48.

For the compound `COc1ccc(NC(=O)NN2C(=O)c3ccccc3N(C)C2c2ccc(OC)cc2)cc1` (stereo not shown) [Compound 6j, 1-(4-Methoxyphenyl)-3-(2-(4-methoxyphenyl)-1-methyl-4-oxo-1,4-dihydroquinazolin-3(2H)-yl)urea], the inhibition at 10 µM with IGROV1 was below 10%; with UACC-62, below 10%; in the assay with HCC-2998, below 10%; in the assay on HCT-15, below 10%; in the assay on 786-0, 34.2%; in the assay with TK-10, below 10%. The inhibition at 10 µM with OVCAR-5, in the assay on MOLT-4, in the assay with A498, with RXF 393, with HL-60(TB) and in the assay on NCI-H322M was below 10% throughout. Moreover, the inhibition at 10 µM with T-47D, with SK-MEL-2, in the assay with HT29, in the assay on EKVX, with NCI-H226 and in the assay with HOP-62 was below 10% each time. Besides, the half-maximal inhibitory concentration (IC50) in assay [1] is 24.1 ± 1.08 µM; on human recombinant COX-2 it was 5.04 ± 1.56 µM. Further, at human recombinant COX-2, the “COX-2 SI” value was 5.34.

The values are drawn from article PMC10114980, “Triple targeting of mutant EGFR^L858R/T790M, COX-2, and 15-LOX: design and synthesis of novel quinazolinone tethered phenyl urea derivatives for anti-inflammatory and anticancer evaluation” (Journal of Enzyme Inhibition and Medicinal Chemistry, 2023).
